Experimental data taken from PubChem BioAssay AID2060332 (Molecular Pharmacology Branch, DTP, NCI, 2025).

System: LG0567-F671-PDC multi-cell spheroid viability
Assay: Anticancer human tumor LG0567-F671-PDC patient-derived lung adenocarcinoma cell line growth inhibition [IpAb]
Details: for IC50: curve of first compound; for viability, T/C: stronger effect = lower value
Source text: Combinatorial screen of targeted agents with ipatasertib and abemaciclib in multi-cell type tumor spheroids
A high-throughput screen of multi-cell type tumor spheroids was designed to identify active combinations of targeted small molecules and ipatasertib or abemaciclib. Complex spheroids include a stromal component modeled by human endothelial cells (HUVEC) and fibroblasts modeled by human mesenchymal stem cells (MSCs). The concentration ranges selected for each drug and investigational agent were based upon clinically achievable concentrations if the clinical Cmax of the agent was known.
Compounds. The drugs and investigational agents: ipatasertib (NSC767898), abemaciclib(NSC768073), selumetinib (NSC741078), trametinib (758246), adavosertib (NSC754352), everolimus (NSC733504), sapanisertib (NSC764658), vemurafenib (NSC761431), venetoclax (NSC766270), copanlisib (NSC809693), apelisib (NSC765974), palbociblib (NSC758247), vemurafenib (NSC761431), dabrafenib (NSC764134), ravoxertinib (NSC781343), BMS-387032 (NSC767048), sotorasib (NSC818433), talazoparib (NSC767125) and afursertib (NSC778305), were obtained from the National Cancer Institute (NCI) Developmental Therapeutics Program Chemical Repository. The FDA-approved anticancer drug set is available from the NCI Developmental Therapeutics Program. […] The stock solutions were prepared in dimethyl sulfoxide (DMSO, Sigma-Aldrich, St. Louis, MO, cat. D2650) at 800-fold the tested concentration and stored at -70 degrees C prior to their use. All drugs and investigational agents were tested over a range starting from a high concentration at or near the clinical Cmax and decreasing in half-log increments. If the clinical Cmax for an agent had not been determined, the highest concentration tested was 10 microM.
NCI60 Cell Culture. NCI60 cell lines were obtained from the NCI Developmental Therapeutics Program Tumor Repository. For each lot of cells, the Repository performed Applied Biosystems AmpFLSTR Identifiler testing with PCR amplification to confirm consistency with the published Identifier STR profile for each cell line. Cells were kept in continuous culture for no more than 20 passages. The optimal seeding densities for each of the cell lines at each time point assessed were determined prior to performing the concentration response studies. Briefly, the NCI60 human tumor lines were grown as monolayers in RPMI 1640 medium supplemented with 10% FBS and 2 mmol/L L-glutamine.
An additional 9 lines were from the NCI60 cell line panel including MDA-MB-231 breast carcinoma, MDA-MB-468 breast carcinoma, MCF7 breast carcinoma, Hs578T breast carcinoma, MALME-3M melanoma, SK-MEL-2 melanoma, SK-OV-3 ovarian carcinoma, DU-145 prostate carcinoma, PC-3 prostate carcinoma, all cell lines along with major genetic alterations are listed on Table 2. Pooled donor human umbilical vein endothelial cells (HUVEC, Lonza, cat. CC-2519) and human mesenchymal stem cells (hMSC, Lonza, cat. PT-2501) were purchased from Lonza (Walkersville, MD).
PDMR cell lines were grown in complete medium (DC medium): Dulbecco's modified Eagle's medium (DMEM)/F12 supplemented with 5% fetal bovine serum (FBS), 2 mM L-glutamine, 100 U/mL penicillin and 100 µg/ml streptomycin, 0.4 µg/ml hydrocortisone, 10 ng/ml epidermal growth factor (EGF) recombinant human protein, 24 µg/mL adenine, and 0.1 mg/mL primocin. During culture from frozen stock vials, PDMR cells were cultured in the same medium containing 10 µM Y-27632 (see Table 3). The PDCs were cultured in complete DMEM/F12 media without 10 microM Y-27632 dihydrochloride for at least two passages prior to the screen. The pooled donor HUVEC and hMSC were cultured in endothelial cell growth medium 2 (PromoCell, Heidelberg, Germany, cat. C-22011) and mesenchymal stem cell growth medium 2 (PromoCell, cat. C-28009), respectively. For all experiments, HUVEC and hMSC were used at passages </=5.
[…]

[1] = second compound 0.01 µM, first compound 0.0316 µM
[2] = second compound 0.01 µM, first compound 0.1 µM
[3] = second compound 0.0316 µM, first compound 0.0316 µM
[4] = second compound 0.0316 µM, first compound 0.1 µM
[5] = second compound 0.1 µM, first compound 0.0316 µM
[6] = second compound 0.1 µM, first compound 0.1 µM
[7] = second compound 0.316 µM, first compound 0.0316 µM
[8] = second compound 0.316 µM, first compound 0.1 µM
[9] = second compound 1 µM, first compound 0.0316 µM
[10] = second compound 1 µM, first compound 0.1 µM
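Further: viability read after 7 days of drug exposure.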
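Wherever viability, T/C is given: 100% = DMSO vehicle control luminescence.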

CC(C)n1nc(-c2ccc3oc(N)nc3c2)c2c(N)ncnc21 + CCN1CCN(Cc2ccc(Nc3ncc(F)c(-c4cc(F)c5nc(C)n(C(C)C)c5c4)n3)nc2)CC1
IC50 (second compound 0.01 µM): 30.5 nM | IC50 (second compound 0.0316 µM): 11.6 nM | IC50 (second compound 0.1 µM): 13.5 nM | IC50 (second compound 0.316 µM): 6.93 nM | IC50 (second compound 1 µM): 6.59 nM | viability, T/C (second compound 0.01 µM, first compound 0.000316 µM): 111% | viability, T/C (second compound 0.01 µM, first compound 0.001 µM): 88.4% | viability, T/C (second compound 0.01 µM, first compound 0.00316 µM): 65.4% | viability, T/C (second compound 0.01 µM, first compound 0.01 µM): 70.2% | viability, T/C [1]: 50% | viability, T/C [2]: 38.6% | viability, T/C (second compound 0.0316 µM, first compound 0.000316 µM): 86.8% | viability, T/C (second compound 0.0316 µM, first compound 0.001 µM): 80.8% | viability, T/C (second compound 0.0316 µM, first compound 0.00316 µM): 73.8% | viability, T/C (second compound 0.0316 µM, first compound 0.01 µM): 52.9% | viability, T/C [3]: 34.9% | viability, T/C [4]: 35% | viability, T/C (second compound 0.1 µM, first compound 0.000316 µM): 65.5% | viability, T/C (second compound 0.1 µM, first compound 0.001 µM): 70.2% | viability, T/C (second compound 0.1 µM, first compound 0.00316 µM): 47.8% | viability, T/C (second compound 0.1 µM, first compound 0.01 µM): 55.6% | viability, T/C [5]: 46.7% | viability, T/C [6]: 29.1% | viability, T/C (second compound 0.316 µM, first compound 0.000316 µM): 66.4% | viability, T/C (second compound 0.316 µM, first compound 0.001 µM): 53.2% | viability, T/C (second compound 0.316 µM, first compound 0.00316 µM): 69.8% | viability, T/C (second compound 0.316 µM, first compound 0.01 µM): 38.5% | viability, T/C [7]: 39.6% | viability, T/C [8]: 36.8% | viability, T/C (second compound 1 µM, first compound 0.000316 µM): 57.1% | viability, T/C (second compound 1 µM, first compound 0.001 µM): 61.7% | viability, T/C (second compound 1 µM, first compound 0.00316 µM): 56.3% | viability, T/C (second compound 1 µM, first compound 0.01 µM): 40.9% | viability, T/C [9]: 43.6% | viability, T/C [10]: 27.9%

Cc1nc(NC(=O)N2CCCC2C(N)=O)sc1-c1ccnc(C(C)(C)C(F)(F)F)c1 (stereo not given) + CCN1CCN(Cc2ccc(Nc3ncc(F)c(-c4cc(F)c5nc(C)n(C(C)C)c5c4)n3)nc2)CC1
IC50 (second compound 0.01 µM): 1080 nM | IC50 (second compound 0.0316 µM): 658 nM | IC50 (second compound 0.1 µM): 387 nM | IC50 (second compound 0.316 µM): 181 nM | IC50 (second compound 1 µM): 481 nM | viability, T/C [1]: 80.2% | viability, T/C [2]: 66.6% | viability, T/C (second compound 0.01 µM, first compound 0.316 µM): 56% | viability, T/C (second compound 0.01 µM, first compound 1 µM): 54.3% | viability, T/C (second compound 0.01 µM, first compound 3.16 µM): 43.5% | viability, T/C (second compound 0.01 µM, first compound 10 µM): 32.4% | viability, T/C [3]: 51.6% | viability, T/C [4]: 75.1% | viability, T/C (second compound 0.0316 µM, first compound 0.316 µM): 57.4% | viability, T/C (second compound 0.0316 µM, first compound 1 µM): 44.6% | viability, T/C (second compound 0.0316 µM, first compound 3.16 µM): 41.1% | viability, T/C (second compound 0.0316 µM, first compound 10 µM): 33.7% | viability, T/C [5]: 57.4% | viability, T/C [6]: 56.8% | viability, T/C (second compound 0.1 µM, first compound 0.316 µM): 49.2% | viability, T/C (second compound 0.1 µM, first compound 1 µM): 46% | viability, T/C (second compound 0.1 µM, first compound 3.16 µM): 34.6% | viability, T/C (second compound 0.1 µM, first compound 10 µM): 27.5% | viability, T/C [7]: 55.5% | viability, T/C [8]: 48.1% | viability, T/C (second compound 0.316 µM, first compound 0.316 µM): 53.5% | viability, T/C (second compound 0.316 µM, first compound 1 µM): 41.1% | viability, T/C (second compound 0.316 µM, first compound 3.16 µM): 35.5% | viability, T/C (second compound 0.316 µM, first compound 10 µM): 29.6% | viability, T/C [9]: 49.5% | viability, T/C [10]: 63.5% | viability, T/C (second compound 1 µM, first compound 0.316 µM): 55.4% | viability, T/C (second compound 1 µM, first compound 1 µM): 40.5% | viability, T/C (second compound 1 µM, first compound 3.16 µM): 42.5% | viability, T/C (second compound 1 µM, first compound 10 µM): 38.3%
